Where a name gives a salt, the structure may show the parent alone.
Tests used:
[1] = target: T1, α4β1 integrin (Homo sapiens, UniProt P05556+P13612); assay: Jurkat-Endothelial Cell Adhesion Assay (Jurkat EC); format: cell-based; settings: Jurkat cell adhesion to IL-1 stimulated endothelial cell monolayers
T1 construct: a T-cell line, Jurkat, known to express the α4β1 integrin; host or cells: Jurkat T-cell line
Summary of the method: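 BCECF-loaded Jurkat T cells (5 x 10^5) mixed with compound, generally 100, 20, 5 and 1.25 µM, in DMEM-HSA, added to HUVEC monolayers prestimulated 4 h with 0.1 ng/ml IL-1. After washing, adherent-cell fluorescence read; % adhesion relative to no-compound control set at 100%.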

[2] = target: T2, α4β1 (Homo sapiens, UniProt P05556+P13612); assay: Jurkat-CS-1 assay; format: cell-based; settings: Jurkat cell adhesion to immobilized CS-1 derived peptide
T2 construct: 100 µl of Jurkat cells (2.5 x 10^6 cells/ml) in DMEM plus BSA; host or cells: Jurkat T-cell line
T2 sequence (P13612 34-1032): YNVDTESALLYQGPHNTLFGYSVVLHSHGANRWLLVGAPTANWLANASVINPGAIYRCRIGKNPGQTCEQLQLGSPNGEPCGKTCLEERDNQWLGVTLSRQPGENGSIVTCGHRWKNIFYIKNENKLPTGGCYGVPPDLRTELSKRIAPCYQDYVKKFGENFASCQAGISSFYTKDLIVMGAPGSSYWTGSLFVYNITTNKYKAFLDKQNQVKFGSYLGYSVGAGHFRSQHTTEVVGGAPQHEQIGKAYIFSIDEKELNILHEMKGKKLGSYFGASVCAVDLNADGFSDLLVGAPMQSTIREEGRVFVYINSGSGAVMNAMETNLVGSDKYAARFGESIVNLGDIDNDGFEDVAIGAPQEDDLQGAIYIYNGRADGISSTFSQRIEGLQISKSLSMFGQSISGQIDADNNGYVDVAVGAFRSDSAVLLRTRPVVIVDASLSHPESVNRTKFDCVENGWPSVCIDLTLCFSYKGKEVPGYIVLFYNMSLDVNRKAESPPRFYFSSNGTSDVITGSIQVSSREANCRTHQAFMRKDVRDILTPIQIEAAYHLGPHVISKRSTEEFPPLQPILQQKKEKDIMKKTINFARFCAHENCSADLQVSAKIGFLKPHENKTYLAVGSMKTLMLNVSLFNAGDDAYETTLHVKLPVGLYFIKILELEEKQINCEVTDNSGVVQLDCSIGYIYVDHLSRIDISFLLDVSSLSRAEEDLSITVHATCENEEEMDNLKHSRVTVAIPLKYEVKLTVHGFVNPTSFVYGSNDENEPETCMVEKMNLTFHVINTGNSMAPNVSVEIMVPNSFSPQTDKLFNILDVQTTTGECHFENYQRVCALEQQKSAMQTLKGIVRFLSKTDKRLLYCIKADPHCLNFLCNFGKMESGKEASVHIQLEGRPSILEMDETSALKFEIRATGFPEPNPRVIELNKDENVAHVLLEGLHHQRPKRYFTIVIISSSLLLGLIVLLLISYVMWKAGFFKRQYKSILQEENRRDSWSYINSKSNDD
T2 sequence (P05556 21-798): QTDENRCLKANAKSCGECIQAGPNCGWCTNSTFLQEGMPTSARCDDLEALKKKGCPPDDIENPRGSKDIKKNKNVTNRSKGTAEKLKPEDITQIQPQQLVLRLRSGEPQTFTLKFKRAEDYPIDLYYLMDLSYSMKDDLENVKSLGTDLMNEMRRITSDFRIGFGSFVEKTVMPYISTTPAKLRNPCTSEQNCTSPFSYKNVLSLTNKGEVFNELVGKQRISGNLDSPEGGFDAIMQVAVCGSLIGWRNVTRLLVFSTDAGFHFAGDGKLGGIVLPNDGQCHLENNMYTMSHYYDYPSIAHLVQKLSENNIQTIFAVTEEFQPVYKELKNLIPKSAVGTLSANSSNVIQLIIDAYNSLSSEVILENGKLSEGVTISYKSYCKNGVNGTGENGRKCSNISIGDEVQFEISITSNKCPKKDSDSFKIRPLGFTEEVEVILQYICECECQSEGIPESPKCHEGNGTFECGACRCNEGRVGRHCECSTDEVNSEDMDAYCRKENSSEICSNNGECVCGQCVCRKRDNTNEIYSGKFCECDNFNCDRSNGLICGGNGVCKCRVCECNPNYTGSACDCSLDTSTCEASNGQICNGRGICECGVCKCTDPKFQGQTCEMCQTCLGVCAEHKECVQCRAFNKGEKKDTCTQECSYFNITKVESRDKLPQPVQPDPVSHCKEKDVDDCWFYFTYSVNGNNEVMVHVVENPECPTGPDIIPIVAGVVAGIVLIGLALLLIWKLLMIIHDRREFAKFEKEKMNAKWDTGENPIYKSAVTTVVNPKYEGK

T1 sequence (P13612 34-1032): as the sequence (P13612 34-1032) above
T1 sequence (P05556 21-798): as the sequence (P05556 21-798) above

| Compound | IC50 [1] | IC50 [2] |
| --- | --- | --- |
| O=C(C=C1CCC(C(=O)O)CC1)N[C@@H](Cc1ccc(NC(=O)c2c(Cl)cccc2Cl)cc1)C(=O)O (stereo partly drawn) [Example 127, N-[4-Carboxy-1-cyclohexylideneacetyl]-4-[(2,6-dichlorobenzoyl)amino]-L-phenylalanine] | 800 to 5000 nM | 80 to 500 nM |
| CC1(C)CC(C(=O)O)CC/C1=C\C(=O)N[C@@H](Cc1ccc(NC(=O)c2c(Cl)cccc2Cl)cc1)C(=O)O (stereo partly drawn) [Example 128, N-[(1E)-4-Carboxy-2,2-dimethyl-1-cyclohexylideneacetyl]-4-[(2,6-dichlorobenzoyl)amino]-L-phenylalanine] | 800 to 5000 nM | 80 to 500 nM |
| O=C(O)/C=C1\CCCc2c(C(=O)N[C@@H](Cc3ccc(NC(=O)c4c(Cl)cccc4Cl)cc3)C(=O)O)cccc21 [Example 134, N-[[(5E)-5-Carboxymethylene-7,8-dihydro-1(6H)-naphthyl]carbonyl]-4-[(2,6-dichlorobenzoyl)amino]-L-phenylalanine] | ≤ 800 nM | 80 to 500 nM |
| O=C(O)/C=C1\CCCc2cc(C(=O)N[C@@H](Cc3ccc(NC(=O)c4c(Cl)cccc4Cl)cc3)C(=O)O)ccc21 [Example 135, N-[[(5E)-5-Carboxymethylene-7,8-dihydro-2(6H)-naphthyl]carbonyl]-4-[(2,6-dichlorobenzoyl)amino]-L-phenylalanine sodium salt] | 5000 to 10000 nM | 500 to 1000 nM |

Continued, values first:

| IC50 [1] | IC50 [2] | Compound |
| --- | --- | --- |
| 800 to 5000 nM | 500 to 1000 nM | COC(=O)[C@H](Cc1ccc(NC(=O)c2c(Cl)cccc2Cl)cc1)NC(=O)c1cccc2c1CCC/C2=C/C(=O)O [Example 130, N-[[(5Z)-5-Carboxymethylene-7,8-dihydro-1(6H)-naphthyl]carbonyl]-4-[(2,6-dichlorobenzoyl)amino]-L-phenylalanine methyl ester] |
| ≤ 800 nM | ≤ 80 nM | O=C(O)/C=C1/CCCc2c(C(=O)N[C@@H](Cc3ccc(NC(=O)c4c(Cl)cccc4Cl)cc3)C(=O)O)cccc21 [Example 131, N-[[(5Z)-5-Carboxymethylene-7,8-dihydro-1(6H)-naphthyl]carbonyl]-4-[(2,6-dichlorobenzoyl)amino]-L-phenylalanine] |

Source: patent EP1144365B1 (TANABE SEIYAKU CO., LTD., priority 1998, dated 2000)
